The term pEC50 denotes −log10 of the EC50, conventionally taken in molar units.

pEC50: −log10 of the molar value.

31 compounds from patent US9133206B2, “Benzodiazepine and pyridodiazepine derivatives” (AbbVie Inc., priority 2010, dated 2015) can be followed below.

In this experiment the test system is SK-N-SH human neuroblastoma cells. As to the kind of experiment: Serum Deprivation/JC-1 Mitochondrial Membrane Potential (MMP) Assay. In kind it is cell-based. The conditions noted are these: for activation at 3 µM: single dose 3 μM, JC-1 ratio normalized to peak value for 10 μM dimebolin (n=2-4), read-out: JC-1 max % (@ 3 μM); for activation at 3 µM / Emax / JC-1 max %: serum deprivation; for pEC50: serum deprivation ~18 hours, JC-1 ratio normalized to peak value for 10 μM dimebolin, single curve fit to mean data of n=2-3; for Emax / JC-1 max %: percent maximal intensity in JC-1 ratio normalized to peak value for 10 μM dimebolin; for Emax: read-out: JC-1 max %. An outline of the steps:
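SK-N-SH cells serum-deprived ~18 h with compound, then stained with JC-1 for 40 min at 37 °C; red (560/595 nm) to green (485/535 nm) ratio reports membrane potential. Response normalized to peak from 10 μM dimebolin; EC50 from fit to mean of n=2–3, or single-dose 3 μM; DMSO ≤1%.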

Regarding `CC(C)(C)CN1Cc2ccccc2N2CCN(Cc3ccccc3)CC2C1` (centres unmarked) [Example 141, 3-benzyl-6-(2,2-dimethylpropyl)-1,2,3,4,4a,5,6,7-octahydropyrazino[1,2-a][1,4]benzodiazepine], under “Homo sapiens”, the activation at 3 µM is 12%.

On to `CCc1ccc(CN2Cc3ccccc3N3CCN(Cc4ccccc4)CC3C2)o1` (centres unmarked) [Example 127, 3-benzyl-6-[(5-ethyl-2-furyl)methyl]-1,2,3,4,4a,5,6,7-octahydropyrazino[1,2-a][1,4]benzodiazepine], for which the activation at 3 µM (Homo sapiens) turned out to be 26%.

In the case of `CN1CCN2c3ccccc3CN(C(=O)c3ccc(Cl)cc3)CC2C1` (centres unmarked) [Example 176, (4-chlorophenyl)(3-methyl-1,2,3,4,4a,5-hexahydropyrazino[1,2-a][1,4]benzodiazepin-6(7H)-yl)methanone], where the note is “Homo sapiens”, the activation at 3 µM is 40%.

In the case of `Fc1ccc(CN2CCN3c4ncccc4N(C[C@@H]4CCN4)CCC3C2)cc1` (stereo partly drawn) [Example 68, 5-[(2S)-azetidin-2-ylmethyl]-9-(4-fluorobenzyl)-5,6,7,7a,8,9,10,11-octahydropyrazino[1,2-d]pyrido[3,2-b][1,4]diazepine], the pEC50 (Homo sapiens, SK-N-SH, 18 h) is 5.06. Further, where the note is “Homo sapiens, SK-N-SH”, the Emax came to 157%.

With `O=C(N1CCOCC1)N1Cc2ccccc2N2CCN(Cc3ccc(F)cc3)CC2C1` (centres unmarked) [Example 76, [3-(4-fluorobenzyl)-1,2,3,4,4a,5-hexahydropyrazino[1,2-a][1,4]benzodiazepin-6(7H)-yl](morpholin-4-yl)methanone], the negative-log EC50 (pEC50) (Homo sapiens, SK-N-SH, 18 h) was 5.15. In addition, the Emax (Homo sapiens, SK-N-SH) amounted to 127%.

As for `Brc1ccc(CN2Cc3ccccc3N3CCN(Cc4ccccc4)CC3C2)cn1` (centres unmarked) [Example 39, 3-benzyl-6-[(6-bromopyridin-3-yl)methyl]-1,2,3,4,4a,5,6,7-octahydropyrazino[1,2-a][1,4]benzodiazepine], under “Homo sapiens, SK-N-SH, 18 h”, the pEC50 is 5.43. Under “Homo sapiens, SK-N-SH”, the Emax worked out at 200%.

As to `O=C1C2CNCCN2c2ccccc2CN1CC1CC1` (centres unmarked) [Example 172, 6-(cyclopropylmethyl)-2,3,4,4a,6,7-hexahydropyrazino[1,2-a][1,4]benzodiazepin-5(1H)-one], the activation at 3 µM (Homo sapiens) amounted to 0%.

For `c1ccc(CN2CCN3c4ccccc4C[N+](Cc4ccccc4)(Cc4ccccc4)CC3C2)cc1` (centres unmarked) [Example 6, 3,6,6-tribenzyl-1,2,3,4,4a,5,6,7-octahydropyrazino[1,2-a][1,4]benzodiazepin-6-ium], the JC-1 max % amounted to 148% and the pEC50 was 5.19.

Turning to `CN(C)CCCNC(=O)N1Cc2ccccc2N2CCN(Cc3ccccc3)CC2C1` (centres unmarked) [Example 164, 3-benzyl-N-[3-(dimethylamino)propyl]-1,2,3,4,4a,5-hexahydropyrazino[1,2-a][1,4]benzodiazepine-6(7H)-carboxamide], the activation at 3 µM (Homo sapiens) came to 93%.

`O=C(c1ccno1)N1Cc2ccccc2N2CCN(Cc3ccccc3)CC2C1` (centres unmarked) [Example 90, (3-benzyl-1,2,3,4,4a,5-hexahydropyrazino[1,2-a][1,4]benzodiazepin-6(7H)-yl)(1,2-oxazol-5-yl)methanone]: the activation at 3 µM (Homo sapiens) worked out at 114%.

Consider `COCCNC(=O)N1Cc2ccccc2N2CCN(Cc3ccccc3)CC2C1` (centres unmarked) [Example 167, 3-benzyl-N-(2-methoxyethyl)-1,2,3,4,4a,5-hexahydropyrazino[1,2-a][1,4]benzodiazepine-6(7H)-carboxamide], for which the activation at 3 µM (Homo sapiens) came out at 63%.

For the compound `CC1CC1C(=O)N1Cc2ccccc2N2CCN(Cc3ccccc3)CC2C1` (centres unmarked) [Example 116, (3-benzyl-1,2,3,4,4a,5-hexahydropyrazino[1,2-a][1,4]benzodiazepin-6(7H)-yl)(2-methylcyclopropyl)methanone], the activation at 3 µM (Homo sapiens) worked out at 198%.

With `Brc1ccc(CN2Cc3ccccc3N3CCN(Cc4ccccc4)CC3C2)nc1` (centres unmarked) [Example 42, 3-benzyl-6-[(5-bromopyridin-2-yl)methyl]-1,2,3,4,4a,5,6,7-octahydropyrazino[1,2-a][1,4]benzodiazepine], the negative-log EC50 (pEC50) (Homo sapiens, SK-N-SH, 18 h) was 5.51. For the same compound, for the setting “Homo sapiens, SK-N-SH”, the Emax stood at 189%.

Consider `NC(=O)C1(C(=O)N2Cc3ccccc3N3CCN(Cc4ccccc4)CC3C2)CC1` (centres unmarked) [Example 97, 1-[(3-benzyl-1,2,3,4,4a,5-hexahydropyrazino[1,2-a][1,4]benzodiazepin-6(7H)-yl)carbonyl]cyclopropanecarboxamide], for which, where the note is “Homo sapiens”, the activation at 3 µM worked out at 32%.

Consider `COc1ccc(CN2Cc3ccccc3N3CCN(Cc4ccccc4)CC3C2)cc1` (centres unmarked) [Example 134, 3-benzyl-6-(4-methoxybenzyl)-1,2,3,4,4a,5,6,7-octahydropyrazino[1,2-a][1,4]benzodiazepine], for which the negative-log EC50 (pEC50) (Homo sapiens, SK-N-SH, 18 h) was 5.45. In addition, the Emax (Homo sapiens, SK-N-SH) was 163%.

With `CC1(C)C(CN2CCC3CN(Cc4ccccc4)CCN3c3ncccc32)C1(C)C` (centres unmarked) [Example 59, 9-benzyl-5-[(2,2,3,3-tetramethylcyclopropyl)methyl]-5,6,7,7a,8,9,10,11-octahydropyrazino[1,2-d]pyrido[3,2-b][1,4]diazepine], the pEC50 (Homo sapiens, SK-N-SH, 18 h) is 5.47. Moreover, where the note is “Homo sapiens, SK-N-SH”, the Emax is 306%.

On to `Clc1ccc(CCN2Cc3ccccc3N3CCN(Cc4ccccc4)CC3C2)cn1` (centres unmarked) [Example 63, 3-benzyl-6-[2-(6-chloropyridin-3-yl)ethyl]-1,2,3,4,4a,5,6,7-octahydropyrazino[1,2-a][1,4]benzodiazepine], for which the pEC50 (Homo sapiens, SK-N-SH, 18 h) is 5.71. Besides, where the note is “Homo sapiens, SK-N-SH”, the Emax was 173%.

For `Cc1ccc(CN2Cc3ccccc3N3CCN(Cc4ccccc4)CC3C2)cn1` (centres unmarked) [Example 32, 3-benzyl-6-[(6-methylpyridin-3-yl)methyl]-1,2,3,4,4a,5,6,7-octahydropyrazino[1,2-a][1,4]benzodiazepine], the negative-log EC50 (pEC50) (Homo sapiens, SK-N-SH, 18 h) is 5.70. Moreover, the Emax (Homo sapiens, SK-N-SH) came out at 140%.

Consider `O=C(c1ccco1)N1Cc2ccccc2N2CCN(Cc3ccccc3)CC2C1` (centres unmarked) [Example 104, (3-benzyl-1,2,3,4,4a,5-hexahydropyrazino[1,2-a][1,4]benzodiazepin-6(7H)-yl)(2-furyl)methanone], for which, under “Homo sapiens”, the activation at 3 µM was 178%.

Take `Clc1cccc(CN2Cc3ccccc3N3CCN(Cc4ccccc4)CC3C2)c1` (centres unmarked) [Example 140, 3-benzyl-6-(3-chlorobenzyl)-1,2,3,4,4a,5,6,7-octahydropyrazino[1,2-a][1,4]benzodiazepine]: the pEC50 (Homo sapiens, SK-N-SH, 18 h) is 5.44. For the same compound, for the setting “Homo sapiens, SK-N-SH”, the Emax was 189%.

With `Fc1ccc(CN2CCN3c4ncccc4N(CC4CCC4)CCC3C2)cc1` (centres unmarked) [Example 65, 5-(cyclobutylmethyl)-9-(4-fluorobenzyl)-5,6,7,7a,8,9,10,11-octahydropyrazino[1,2-d]pyrido[3,2-b][1,4]diazepine], the pEC50 (Homo sapiens, SK-N-SH, 18 h) is 5.34. The Emax (Homo sapiens, SK-N-SH) was determined as 133%.

On to `c1ccc(CN2CCN3c4ccccc4CN(CC4CCCC4)CC3C2)cc1` (centres unmarked) [Example 125, 3-benzyl-6-(cyclopentylmethyl)-1,2,3,4,4a,5,6,7-octahydropyrazino[1,2-a][1,4]benzodiazepine], for which, under “Homo sapiens, SK-N-SH, 18 h”, the negative-log EC50 (pEC50) was 5.37. For the same compound, the Emax (Homo sapiens, SK-N-SH) was 98%.

Turning to `O=C(c1cccnc1)N1CCN2c3ncccc3N(CC3CC3)CCC2C1` (centres unmarked) [Example 74, [5-(cyclopropylmethyl)-6,7,7a,8,10,11-hexahydropyrazino[1,2-d]pyrido[3,2-b][1,4]diazepin-9(5H)-yl](pyridin-3-yl)methanone], under “Homo sapiens, SK-N-SH, 18 h”, the pEC50 is 5.11. Further, under “Homo sapiens, SK-N-SH”, the Emax was found to be 109%.

Regarding `O=C(C1CCCO1)N1Cc2ccccc2N2CCN(Cc3ccccc3)CC2C1` (centres unmarked) [Example 118, (3-benzyl-1,2,3,4,4a,5-hexahydropyrazino[1,2-a][1,4]benzodiazepin-6(7H)-yl)(tetrahydrofuran-2-yl)methanone], the activation at 3 µM (Homo sapiens) came out at 84%.

As to `c1ccc(CN2CCN3c4ccccc4CN(Cc4ccc5ccccc5c4)CC3C2)cc1` (centres unmarked) [Example 124, 3-benzyl-6-(2-naphthylmethyl)-1,2,3,4,4a,5,6,7-octahydropyrazino[1,2-a][1,4]benzodiazepine], where the note is “Homo sapiens, SK-N-SH, 18 h”, the pEC50 is 5.46. Besides, the Emax (Homo sapiens, SK-N-SH) came out at 193%.

Take `CN1CCC2CN(Cc3ccccc3)CCN2c2ccccc21` (centres unmarked) [Example 49, 3-benzyl-7-methyl-1,2,3,4,4a,5,6,7-octahydropyrazino[1,2-a][1,5]benzodiazepine]: the negative logarithm of the EC50 (pEC50) (Homo sapiens, SK-N-SH, 18 h) is 4.98. Further, the Emax (Homo sapiens, SK-N-SH) turned out to be 128%.

`Clc1ccc(CCN2CCC3CN(Cc4ccccc4)CCN3c3ccccc32)cc1` (centres unmarked) [Example 44, 3-benzyl-7-[2-(4-chlorophenyl)ethyl]-1,2,3,4,4a,5,6,7-octahydropyrazino[1,2-a][1,5]benzodiazepine]: the negative-log EC50 (pEC50) (Homo sapiens, SK-N-SH, 18 h) is 5.52. Besides, for the setting “Homo sapiens, SK-N-SH”, the Emax was found to be 291%.

With `CC1(C)C(C(=O)N2CCC3CN(Cc4ccccc4)CCN3c3ncccc32)C1(C)C` (centres unmarked) [Example 58, (9-benzyl-7,7a,8,9,10,11-hexahydropyrazino[1,2-d]pyrido[3,2-b][1,4]diazepin-5(6H)-yl)(2,2,3,3-tetramethylcyclopropyl)methanone], the pEC50 (Homo sapiens, SK-N-SH, 18 h) was 5.44. Moreover, the Emax (Homo sapiens, SK-N-SH) was 215%.

In the case of `Brc1ccc(CN2Cc3ccccc3N3CCN(Cc4ccccc4)CC3C2)cc1` (single isomer, unassigned; (+)) [Example 19, (+)-3-benzyl-6-(4-bromobenzyl)-1,2,3,4,4a,5,6,7-octahydropyrazino[1,2-a][1,4]benzodiazepine], the JC-1 max % was 169% and the pEC50 was 5.81.

Take `O=C(c1cscn1)N1Cc2ccccc2N2CCN(Cc3ccccc3)CC2C1` (centres unmarked) [Example 88, (3-benzyl-1,2,3,4,4a,5-hexahydropyrazino[1,2-a][1,4]benzodiazepin-6(7H)-yl)(1,3-thiazol-4-yl)methanone]: the activation at 3 µM (Homo sapiens) was found to be 139%.

For `Fc1ccc(CN2Cc3ccccc3N3CCN(Cc4ccccc4)CC3C2)cc1` (centres unmarked) [Example 17, 3-benzyl-6-(4-fluorobenzyl)-1,2,3,4,4a,5,6,7-octahydropyrazino[1,2-a][1,4]benzodiazepine], the negative logarithm of the EC50 (pEC50) (Homo sapiens, SK-N-SH, 18 h) is 5.35. For the same compound, where the note is “Homo sapiens, SK-N-SH”, the Emax amounted to 183%.
